From article PMC7502707, “Characterization and validation of a preventative therapy for hypertrophic cardiomyopathy in a murine model of the disease” (Proceedings of the National Academy of Sciences of the …, 2020)
Marks after values point to notes of the source that are not given here.

Tests used:
[1] = tested on: BALB/c nude mice; conditions: mouse, in vivo
Protocol: Eight-week-old male BALB/c nude mice were used to assess in vivo cardiac uptake and bio-distribution of sulfo-Cyanine7-labeled AID(S)-TAT and AID-TAT (Cy7, W&J PharmaChem) using a CRi Maestro 2 multispectral imaging system (Cambridge Research and Instrumentation) based on previously described methods ([63]). All studies were performed in mice anesthetized with isoflurane (2 to 4%), followed by intraperitoneal injection of pentobarbitone sodium (240 mg/kg), as approved by the Animal Ethics Committee of The University of Western Australia in accordance with the 2013 Australian Code for the Care and Use of Animals for Scientific Purposes ([58]). Detailed methods are provided in SI Appendix.
50 ms, Molecular Probes, Eugene, Oregon) (5). Cells were incubated in calcium-free HBS (supplemented with 3 mM EGTA and 200 nM JC-1) for at least 3 h prior to measuring changes in Ψm. Sodium cyanide (NaCN, 40 mM, mitochondrial electron transport blocker) was added at the end of each experiment to collapse Ψm, confirming that the JC-1 signal was indicative of Ψm.
Additionally, individual 580 nm and 535 nm wavelength signals were assessed in each experiment to determine whether the fluorescent indicator was accurately measuring Ψm. […] Ratiometric JC-1 or flavoprotein fluorescent signals were quantified by manually tracing myocytes and subtracting an equivalent background region […]

[2] = tested on: cTnI-G203S mice; assay: Echocardiography of treated cTnI-G203S mice; assay type: in vivo, mouse; conditions: for FS / HW:BW / IVSD / IVSS / LVDPW / LVEDD / LVESD / LVSPW: 10 μM i.p. 3×/wk/5 wk, mean
Protocol: Male mice expressing the human cTnI gene encoding the human disease-causing mutation cTnI-G203S were used for all studies. The mice develop hallmark features of HCM by 21 wk ([7], [13]). Male mice expressing the normal human cTnI gene were used as controls (wt). Ten-week-old mice were used for in vitro studies. For in vivo studies, 20- or 30-wk-old cTnI-G203S mice were treated with 10 μM AID-TAT or AID[S]-TAT via intraperitoneal injection, 3×/wk/5 wk. In vivo dose of AID-TAT or AID[S]-TAT (10 μM) was calculated based on blood volume, equating to ∼2 mg/kg total BW. Male animal models were used to eliminate potential differences in responses due to sex. Experiments were performed in a total of 21 wt (AID[S]-TAT), 6 wt (AID-TAT), 15 cTnI-G203S (AID[S]-TAT), and 26 cTnI-G203S (AID-TAT) mice. All animals were randomly assigned to treatment groups. All animal studies were approved by the Animal Ethics Committee of The University of Western Australia in accordance with the 2013 Australian Code for the Care and Use of Animals for Scientific Purposes ([58]).
Echocardiographic measurement of left ventricular function were performed on mice under light methoxyflurane anesthesia using an i13L probe on a Vivid 7 Dimension ultrasound system (GE Healthcare), as previously described ([13], [29], [30]). Each n represents the average of quantitative measurements from wt or cTnI-G203S mice for each treatment group. Detailed methods are provided in SI Appendix.
Echocardiographic measurement of left ventricular function were performed on mice under light methoxyflurane anesthesia using an i13L probe on a Vivid 7 Dimension ultrasound system (GE Healthcare, Little Chalfont, United Kingdom) as previously described (4, 7). Echocardiographic measurements were taken on M-mode in triplicate from separate mice at a sweep speed of 200 mm/s. Each n represents the average of quantitative measurements from wt or cTnI-G203S mice for each treatment group. Measurements of left ventricular end diastolic diameter (LVEDD), left ventricular end systolic diameter (LVESD), fractional shortening (FS), left ventricular posterior wall in diastole (LVDPW), left ventricular posterior wall in systole (LVSPW), interventricular septum in diastole (IVSD), interventricular septum in systole (IVSS) and end diastolic diameter (EDD) were made. FS was calculated by the formula [(LVEDD-LVESD)/EDD] x 100. […]
(BioAssay Systems, Hayward CA). All assays were performed as per manufacturer’s instructions, using a spectrophotometer (PowerWave XS).

[3] = Post-HCM treatment (from 30 wk), 35-wk-old cTnI-G203S mice, n = 5
[4] = Pre-HCM treatment (from 20 wk), 25-wk-old cTnI-G203S mice, n = 7 AID(S)-TAT, n = 6 AID-TAT

QQLEEDLKGYLDWITQAE [AID-TAT]
Cy7 decay (clearance) in left or right kidney, or liver [1]: no significant difference | FS [2, 3]: 48.48% | HW:BW [2, 3]: 5.81 mg/g | IVSD [2, 3]: 0.95 mm | IVSS [2, 3]: 1.05 mm | LVDPW [2, 3]: 1.26 mm | LVEDD [2, 3]: 3.18 mm | LVESD [2, 3]: 1.67 mm | LVSPW [2, 3]: 1.43 mm | FS [2, 4]: 38.26^† % | HW:BW [2, 4]: 4.70^† mg/g | IVSD [2, 4]: 0.73^† mm | IVSS [2, 4]: 0.82^† mm | LVDPW [2, 4]: 1.23 mm | LVEDD [2, 4]: 3.33^† mm | LVESD [2, 4]: 2.06^† mm | LVSPW [2, 4]: 1.37 mm | reversal of established HCM ([2]; cTnI-G203S mice with established HCM, 10 μM 3×/wk/5 wk): not effective at reversing the cardiomyopathy | development of HCM ([2]; precardiomyopathic cTnI-G203S mice, 10 μM 3×/wk/5 wk): prevents the development of HCM
